Test results taken from patent US20260306460A1, “COMPOSITION FOR REMOVING AND INHIBITING SENESCENT CELLS, AND USES THEREOF” (LIFECEUTIX CO., LTD., priority 2023, published 2026).

Key:
Splnocyte = conditions: cited from earlier work
senescent human cells = assay: Viability of doxorubicin-induced senescent human cells (CellTiter-Glo), Example 11; type: cell-based
Method: Cells in which senescence was induced by treatment with doxorubicin were treated with the test compound at designated concentrations and measured using the CellTiter-Glo Luminescent Cell Viability Assay (Promega).

[1] = test system: HMGN1 secreted from senescent A549 cells; assay: HMGN1 secretion (ELISA) from senescent A549 cancer cells, Example 12; type: cell-based, human; conditions: senescent untreated = 100%; 30 μM; 90 μM for LX-305, 905, 1302, 1601, 1603, 2003, 2702, 2901, 3106; 270 μM for LX-1103, 2005, 2007;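 note: A549 cells made senescent by doxorubicin exposure, with DMSO-treated cells serving as the non-senescent control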
Method: (§2) Cells were treated with doxorubicin or control (DMSO) and cultured.

senescent A549 cells = assay: Viability of senescent A549 cancer cells (CellTiter-Glo), Example 12; type: cell-based, human; conditions: Homo sapiens, A549, 0 μM = 100, read-out: Survival
Method: as §2
Cancer cells in which aging was induced by treatment with doxorubicin were treated with the test compound at designated concentrations and measured using the CellTiter-Glo Luminescent Cell Viability Assay (Promega).

senescent foreskin cells = assay: Survival of senescent human cells treated with supernatant (secreted fluid) from death-induced cells, Example 13; type: cell-based; conditions: senescent treated cells, 3 days; for viability at 30 µM: Homo sapiens, 72 h
[2] = test system: proliferating foreskin cells; assay: Survival of proliferating human cells treated with supernatant (secreted fluid) from death-induced cells, Example 13; type: cell-based; conditions: 3 days; for viability at 30 µM: Homo sapiens, 72 h
Method: (§1) After 3 days, cell viability was measured using CellTiter-Glo Luminescent Cell Viability Assay (Promega) or light microscopy.
After treating cells with the test compound at a high concentration that induces the death of most cells in both non-senescence-induced and senescence-induced cells, the cells were washed three times with PBS to remove the test compound, and replaced with fresh medium and cultured for an additional 3 hours at the time when the compound has entered into the cell but has not yet induced cell death (approximately 1 to 3 hours after compound treatment). During this additional culture, by checking with an optical microscope, etc., the medium supernatants containing secreted fluid from normally proliferating and senescent cells in which cell death was induced were obtained. The obtained medium supernatant was replaced with the medium of normally proliferating and senescent cells, respectively, and cell survival rate was measured after 3 days.

[3] = test system: naturally aged C57BL6J mice; assay: Geriatric depression and anxiety in aged mice, Example 21-8; type: in vivo, mouse; conditions: aged mice
Excerpt: The amount of senescent-associated secretory factor (SASP) in serum and tissues collected from mice of Examples 21-5 and 21-6 was reduced by treatment with LX-5701, LX-2101, or LX-2102. It was confirmed that removing senescent cells, which increase with aging in mice, and effectively reducing the amount of senescent-associated secretory factor (SASP) can improve symptoms of geriatric depression and anxiety.

[4] = test system: obesity-induced aged C57BL6J mice; assay: Anxiety, depression, lethargy (open field test) in obesity-aged mice, Example 23-4, Table 44; type: in vivo, mouse; conditions: obesity-aged mice
Method: 15-week-old male C57BL6J mice (The Jackson Laboratory) were induced to obesity by a high-fat diet using the same method as in Example 9-1 WO2023-085787 A1. After acclimation to the experimental environment for one week, the mice were randomly assigned to experimental and control groups. […] LX-3002 was mixed in distilled water with 4% DMSO, 30% PEG300, and 5% Tween80 and administered orally at a concentration of 10 mg/kg daily for 21 days. LX-5701 was mixed in PBS and administered orally at a concentration of 360 mg/kg daily for 21 days. LX-6807 was mixed in saline and administered intraperitoneally at a concentration of 1 mg/kg daily for 21 days. The control group received only the solution in the same volume. After the end of drug administration, the methods described in each example below were performed.
It was determined that anxiety and depression caused by obesity are not causally related to increased body weight, but rather are caused by the accumulation of senescent cells. Accordingly, an activity assessment (open field test) was performed using the same method as in Example 7-7 of WO2023-085787 A1 to analyze lethargy caused by anxiety and depression caused by obesity in mice. The table below quantitatively represents activity, a criterion for assessing lethargy due to anxiety and depression, under conditions in which aging was induced by obesity and the test compound was not administered or was administered. The activity assessment after obesity-induced aging was calculated as 100% and compared with the activity assessment after test compound treatment.

[5] = test system: non-senescent proliferating human cells; assay: Effect on non-senescent (proliferating) human cells; type: cell-based; conditions: normally proliferating foreskin cells; 30 μM, 3 days
Excerpt: Based on the results of Example 10 of WO2023-085787 A1, compounds that induce the death of senescent cells through a mechanism similar to LX-112, unlike existing senescent cell removers such as ABT-263, were screened based on HMGN1. […] The following test compounds were synthesized by and purchased from Medchemexpress, Selleckchem, Cayman, Medkoo, Sigma, Molport, Enzo, TCI, Santa Cruz, REONSIMI, Abcam, Alfa Aesar, APExBIO, BOCSCI, Merck, Thermo Fisher Scientific, R&D Systems, ChemFaces, Aobious, etc. […] In cells in which senescence was not induced by treatment with the control group (DMSO), the amount of HMGN1 above the effective value (sensitivity: 35 pg/ml), analysis limit, was not detected in both untreated and treated conditions with the test compound. On the other hand, in cells where senescence was induced by treatment with doxorubicin, the amount of HMGN1 was measured at 80 to 90 pg/ml. […]
as §1
Using the same method as Example 11, compounds that induce senescent cell death through a mechanism similar to that of LX-112 (ethaselen (1,2-[bis(1,2-benzisoselenazolone-3 (2H)-ketone)]ethane)) were screened based on HMGN1 and others. […] On the other hand, in cells senescent with doxorubicin, an amount of HMGN1 of […] was measured. […]

[6] = supernatant from death-induced proliferating cells
[7] = supernatant from death-induced senescent cells

SMILES: CC(O)[C@@H]1NC(=O)COCCOCCNC(=O)[C@H](C(C)O)NC(=O)N[C@@H](C(C)O)C(=O)NNC1=O (stereo partly drawn) [Cyclic compound 1]
- Splnocyte proliferation recovery (Splnocyte): Splnocyte proliferation recovery 91%

SMILES: CC(C)c1onc(C(=O)N2CCN(C(c3ccccc3)c3ccccc3)CC2)c1[N+](=O)[O-] [LX-401]
- viability at 1.1 µM (senescent human cells; Homo sapiens, 1.1 μM, 0 μM = 100, read-out: Survival): 20.4%
- viability at […] (senescent human cells; Homo sapiens, 3.3 μM, 0 μM = 100, read-out: Survival): 12.4%
- viability at 10 µM (senescent human cells; Homo sapiens, 10 μM, 0 μM = 100, read-out: Survival): 10.6%
- viability at 30 µM (senescent human cells; Homo sapiens, 30 μM, 0 μM = 100, read-out: Survival): 7.8%
- induced death of cells (senescent human cells; senescent foreskin cells, 30 μM, 3 days): induced the death of most cells
- HMGN1 [1]: 277%
- viability at 1.1 µM (senescent A549 cells; 1.1 μM): 89.7%
- viability at […] (senescent A549 cells; 3.3 μM): 68.6%
- viability at 10 µM (senescent A549 cells; 10 μM): 42.1%
- viability at 30 µM (senescent A549 cells; 30 μM): 16.8%
- viability at 30 µM (senescent foreskin cells; [6]): 48.2%
- viability at 30 µM (senescent foreskin cells; [7]): 42.2%
- Survival (senescent foreskin cells; supernatant from No Cells): 101.1 (±5.5) %
- viability at 30 µM [2, 6]: 88.1%
- viability at 30 µM [2, 7]: 95.1%
- Survival ([2]; supernatant from No Cells): 97.9 (±7.2) %
- amount of SASP, p16, SA-β-gal, lipofuscin [3]: reduced
- symptoms of geriatric depression and anxiety [3]: improved
- geriatric depression [4]: similarly improving geriatric depression
- induced death of cells [5]: induced the death of most cells
